Reference: ChEMBL document CHEMBL5042535, “Structure-Based Design and Synthesis of N-Substituted 3-Amino-β-Carboline Derivatives as Potent αβ-Tubulin Degradation Agents” (J Med Chem, 2022)

How the values were obtained:
Type in all cases: functional, cell-based
MCF7 = experiment: Antiproliferative activity against human MCF7 cells assessed as reduction in cell viability measured after 24 hrs by MTT assay; details: MCF7, 24 h
NCI-H460 = experiment: Antiproliferative activity against human NCI-H460 cells assessed as reduction in cell viability measured after 24 hrs by MTT assay; details: NCI-H460, 24 h
Raji = experiment: Antiproliferative activity against human Raji cells assessed as reduction in cell viability measured after 24 hrs by MTT assay
A2780S = experiment: Antiproliferative activity against human A2780S cells assessed as reduction in cell viability measured after 24 hrs by MTT assay
HeLa = experiment: Antiproliferative activity against human HeLa cells assessed as reduction in cell viability measured after 24 hrs by MTT assay

Structure (SMILES)	IC50 (MCF7) [µM]	IC50 (NCI-H460) [µM]	IC50 (Raji) [µM]	IC50 (A2780S) [µM]	IC50 (HeLa) [µM]
c1ccc2cc(CNc3cc4c(cn3)[nH]c3ccccc34)ccc2c1	> 0.5	> 0.5	> 0.5	> 0.5	> 0.5
c1ccc(-c2ccc(Oc3cccc(CNc4cc5c(cn4)[nH]c4ccccc45)c3)cc2)cc1	> 0.5	> 0.5	> 0.5	> 0.5	> 0.5
N#Cc1ccccc1Oc1cccc(CNc2cc3c(cn2)[nH]c2ccccc23)c1	> 0.5	> 0.5	> 0.5	> 0.5	> 0.5
CC(C)(C)CC(C)(C)c1ccc(Oc2cccc(CNc3cc4c(cn3)[nH]c3ccccc34)c2)cc1	> 0.5	> 0.5	> 0.5	> 0.5	> 0.5
Fc1ccc(Oc2cccc(CNc3cc4c(cn3)[nH]c3ccccc34)c2)cc1	0.027	0.076	0.033	0.028	0.039
Cc1ccccc1Oc1cccc(CNc2cc3c(cn2)[nH]c2ccccc23)c1	0.059	0.052	0.032	0.062	0.057
